Data published in patent US8440694B2, “Quinoline compounds suitable for treating disorders that respond to modulation of the serotonin-5-HT6 receptor” (Abbott GmbH & Co. KG, priority 2007, dated 2013).
Counter-ions that a name gives are not always drawn.

Target: T1, h-5-HT6 receptor (Homo sapiens, UniProt P50406)
T1 construct: expressed in transfected cells
Assay: 5-HT6 receptor binding assay (displacement of [3H]-LSD)
Conditions: membranes of HEK293 cells stably expressing h-5-HT6 receptor, [3H]-LSD displacement
Description: Displacement of Radioligands Binding to the Following Cloned Human Receptors
Cells from stable clonal cell lines expressing the corresponding receptor (5-HT6, α1-adrenergic, dopamine D2 or histamine H1 receptors) were washed with PBS (w/o Ca^++, Mg^++) and harvested in PBS with 0.02% EDTA. The cells were collected by centrifugation at 500 g for 10 min. at 4° C., washed with PBS and centrifuged (500 g, 10 min. 4° C.). The pellets were stored at −80° C. until use. For membrane preparation, the thawed cell pellet was resuspended in ice-cold sucrose buffer (0.25 M sucrose, 10 mM Hepes (pH 7.4), 1 mM Phenylmethylsulfonyl fluoride (PMSF) in DMSO, 5 μg/ml Pepstatin-A, 3 mM EDTA, 0.025% Bacitracin) and homogenized with a Branson Sonifier W-250 (Settings: Timer 4; Output Control 3; Duty Cycle constant; 2 to 3 cycles). Cell disruption was checked with the aid of a microscope. Remaining unbroken cells were pelleted at 1.000 g for 10 min. at 4° C. The sucrose buffer supernatant was then centrifuged at 60.000 g for 1 h at 4° C. (Beckman Ultrazentrifuge XL 80). The pellet was resuspended in 30 ml ice-cold Tris buffer (20 mM TRIS (pH 7.4), 5 μg/ml Pepstatin A, 0.1 mM PMSF, 3 mM EDTA) by pipetting through a 10 ml serological pipet and centrifuged for 1 h at 4° C. at 60.000 g. A final resuspension was performed in a small volume of ice-cold Tris buffer (see above) by pressing through a serological pipet followed by ultrasonic treatment with a Branson Sonifier W-250 (Settings: Timer 1; Output Control 3; Duty Cycle constant; 1 cycle). Protein concentration was determined (BCA-Kit; Pierce) and aliquots stored at −80° C. or in liquid nitrogen for long-term storage.
All receptor binding experiments were carried out in the corresponding assay buffer in a total volume of 200 μl in the presence of various concentrations of test compound (10^−5 M to 10^−9 M, tenfold serial dilution, duplicate determinations). The assays were terminated by filtration on polyethylenimine (PEI 0.1% or 0.3%) presoaked Packard Unifilter Plates (GF/C or GF/B) with a Tomtec MachIII U 96well-plate harvester. After the plates had been dried for 2 h at 55° C. in a drying chamber scintillation cocktail (BetaPlate Scint; PerkinElmer) was added. Radioactivity was measured in a Microbeta Trilux two hours after the addition of the scintillation mixture. Data derived from liquid scintillation counting were analysed by iterative non-linear regression analysis with the use of the Statistical Analysis System (SAS): a program similar to “LIGAND” as described by Munson and Rodbard (Analytical Biochemistry 107, 220-239 (1980).
HEK293 cells stably expressing the h-5-HT6 receptor (NCBI Reference Sequence XM 001435) were cultured in RPMI1640 medium supplemented with 25 mM HEPES, 10% fetal calf serum and 1-2 mM glutamine. The membrane preparation was performed as described in section 1. […] Non-specific binding was defined with 1 μM methiothepin. The binding reaction was carried out for 3.5 h at room temperature. During the incubation, the plates were shaken on a plate shaker at 100 rpm and terminated by filtration on Packard Unifilter GF/C (0.1% PEI) plates, followed by 2 wash cycles with ice-cold 50 mM Tris-HCl, 5 mM CaCl2.
Data derived from liquid scintillation counting were analyzed by iterative non-linear regression analysis with the use of the Statistical Analysis System (SAS): a program similar to “LIGAND” as described by Munson and Rodbard (Anal. Biochem. 1980, 107, 220-239). Fitting was performed according to formulae described by Feldman (Anal. Biochem. 1972, 48, 317-338). IC50, nH and Ki values were expressed as geometrical mean.

T1 sequence (P50406 whole entry): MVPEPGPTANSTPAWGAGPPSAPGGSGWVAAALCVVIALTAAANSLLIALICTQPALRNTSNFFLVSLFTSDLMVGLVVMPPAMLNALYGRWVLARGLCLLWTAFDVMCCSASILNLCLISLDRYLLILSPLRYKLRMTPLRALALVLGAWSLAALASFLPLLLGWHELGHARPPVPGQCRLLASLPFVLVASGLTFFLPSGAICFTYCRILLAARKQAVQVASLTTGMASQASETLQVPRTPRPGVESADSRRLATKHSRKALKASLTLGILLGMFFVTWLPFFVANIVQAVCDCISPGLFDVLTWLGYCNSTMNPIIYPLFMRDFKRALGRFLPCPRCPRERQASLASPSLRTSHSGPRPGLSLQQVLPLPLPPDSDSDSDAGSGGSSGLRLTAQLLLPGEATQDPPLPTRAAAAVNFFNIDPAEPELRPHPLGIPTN

Compound | Ki [nM]
O=C(OCc1ccccc1)N1CC2CN(c3cccc4cc(S(=O)(=O)c5ccccc5)cnc34)C2C1 (stereo not drawn) [Example 2, Benzyl 6-(3-(phenylsulfonyl)quinolin-8-yl)-3,6-diazabicyclo[3.2.0]heptane-3-carboxylate] | < 250
CC(C)(C)OC(=O)N1CCC2CN(c3cccc4cc(S(=O)(=O)c5ccccc5)cnc34)CC2C1 (stereo not drawn) [Example 3, tert-butyl 2-(3-(phenylsulfonyl)quinolin-8-yl)hexahydro-1H-pyrrolo[3,4-c]pyridine-5(6H)-carboxylate] | < 250
O=S(=O)(c1ccccc1)c1cnc2c(N3CC4CCNCC4C3)cccc2c1 (stereo not drawn) [Example 4, 3-(Phenylsulfonyl)-8-(1H-pyrrolo[3,4-c]pyridin-2(3H,3aH,4H,5H,6H,-7H,7aH)-yl)quinoline] | < 10
O=S(=O)(c1ccccc1)c1cnc2c(N3CCCC4NCCCC43)cccc2c1 (stereo not drawn) [Example 10, 1-(3-(phenylsulfonyl)quinolin-8-yl)decahydro-1,5-naphthyridine] | < 250
O=S(=O)(c1ccccc1)c1cnc2c(N3CC[C@H]4CNC[C@H]43)cccc2c1 [Example 12, 8-((3aS,6aS)-hexahydropyrrolo[3,4-b]pyrrol-1(2H)-yl)-3-(phenylsulfonyl)-quinoline] | < 10
O=S(=O)(c1ccc(F)cc1)c1cnc2c(N3CC4CCNCC4C3)cccc2c1 (stereo not drawn) [Example 13, 3-(4-fluorophenylsulfonyl)-8-(1H-pyrrolo[3,4-c]pyridin-2(3H,3aH,4H,5H,6H,7H,7aH)-yl)quinoline] | < 10
O=S(=O)(c1ccc(F)cc1)c1cnc2c(N3CC4CNCC4C3)cccc2c1 (stereo not drawn) [Example 14, 3-(4-fluorophenylsulfonyl)-8-(hexahydropyrrolo[3,4-c]pyrrol-2(1H)-yl)quinoline] | < 10
CC(C)(C)OC(=O)N1CC2CN(c3cccc4cc(S(=O)(=O)c5cccc(OC(F)(F)F)c5)cnc34)CC2C1 (stereo not drawn) [Example 15, tert-butyl 5-(3-(3-(trifluoromethoxy)phenylsulfonyl)quinolin-8-yl)hexahydropyrrolo[3,4-c]pyrrole-2 (1H)-carboxylate] | < 50
O=S(=O)(c1cccc(OC(F)(F)F)c1)c1cnc2c(N3CC4CNCC4C3)cccc2c1 (stereo not drawn) [Example 16, 8-(hexahydropyrrolo[3,4-c]pyrrol-2(1H)-yl)-3-(3-(trifluoromethoxy)-phenylsulfonyl)quinoline] | < 10
O=S(=O)(c1cccc(N2CC3CNCC3C2)c1)c1cnc2c(N3CC4CNCC4C3)cccc2c1 (stereo not drawn) [Example 18, 8-(hexahydropyrrolo[3,4-c]pyrrol-2(1H)-yl)-3-(3-(hexahydropyrrolo[3,4-c]pyrrol-2(1H)-yl)phenylsulfonyl)quinoline] | < 10
CC(C)(C)OC(=O)N1CCC2CN(c3cccc4cc(S(=O)(=O)c5cccc(OC(F)(F)F)c5)cnc34)CC2C1 (stereo not drawn) [Example 19, tert-butyl 2-(3-(3-(trifluoromethoxy)phenylsulfonyl)quinolin-8-yl)hexahydro-1H-pyrrolo[3,4-c]pyridine-5(6H)-carboxylate] | < 50
O=S(=O)(c1cccc(F)c1)c1cnc2c(N3CC[C@H]4CNC[C@H]43)cccc2c1 [Example 26, 3-(3-Fluoro-benzenesulfonyl)-8-(3aS,6aS)-hexahydropyrrolo[3,4-b]pyrrol-1-yl-quinoline hydrochloride] | < 10
O=S(=O)(c1cccc(F)c1)c1cnc2c(N3C[C@H]4CN[C@H]4C3)cccc2c1 [Example 28, 8-(1R,5R)-3,6-Diaza-bicyclo[3.2.0]hept-3-yl-3-(3-fluoro-benzenesulfonyl)-quinoline hydrochloride] | < 10
O=S(=O)(c1cccc(F)c1)c1cnc2c(N3C[C@H]4CNC[C@H]4C3)cccc2c1 [Example 30, 3-(3-Fluoro-benzenesulfonyl)-8-(3aR,6aS)-hexahydro-pyrrolo[3,4-c]pyrrol-2-yl-quinoline hydrochloride] | < 10
O=S(=O)(c1ccccc1)c1cnc2c(N3CC4CN(Cc5ccccc5)CC4C3)cccc2c1 (stereo not drawn) [Example 40, 8-(5-benzylhexahydropyrrolo[3,4-c]pyrrol-2(1H)-yl)-3-(phenylsulfonyl)-quinoline] | < 10
CN1CCC2CN(c3cccc4cc(S(=O)(=O)c5ccccc5)cnc34)CC2C1 (stereo not drawn) [Example 41, 8-(5-methyl-1H-pyrrolo[3,4-c]pyridin-2(3H,3aH,4H,5H,6H,7H,7aH)-yl)-3] | < 50
O=S(=O)(c1ccccc1)c1cnc2c(N3CCC4NC5CCCCC5C4C3)cccc2c1 (stereo not drawn) [Example 42, 2-(3-(phenylsulfonyl)quinolin-8-yl)dodecahydro-1H-pyrido[4,3-b]indole] | < 250
O=S(=O)(c1ccccc1)c1cnc2c(N3CC4CNCC4C3)cccc2c1 (stereo not drawn) [Example 43, 8-(hexahydropyrrolo[3,4-c]pyrrol-2(1H)-yl)-3-(phenylsulfonyl)quinoline] | < 10

Next, values leading:

Ki [nM] | Compound
< 10 | O=S(=O)(c1ccccc1)c1cnc2c(N3CC4CCNC4C3)cccc2c1 (stereo not drawn) [Example 1, 8-(Hexahydropyrrolo[3,4-b]pyrrol-5(1H)-yl)-3-(phenylsulfonyl)quinoline hydrochloride]
< 10 | O=S(=O)(c1cccc(OC(F)(F)F)c1)c1cnc2c(N3CC4CCNCC4C3)cccc2c1 (stereo not drawn) [Example 20, 8-(1H-pyrrolo[3,4-c]pyridin-2(3H,3aH,4H,5H,6H,7H,7aH)-yl)-3-(3-(trifluoromethoxy)phenylsulfonyl)quinoline]
< 10 | O=S(=O)(c1cccc(C(F)(F)F)c1)c1cnc2c(N3CC4CCNC4C3)cccc2c1 (stereo not drawn) [Example 22, 8-(hexahydropyrrolo[3,4-b]pyrrol-5(1H)-yl)-3-(3-(trifluoromethyl)-phenylsulfonyl)quinoline]
< 10 | O=S(=O)(c1cccc(C(F)(F)F)c1)c1cnc2c(N3C[C@H]4CNC[C@H]4C3)cccc2c1 [Example 24, 8-((3aR,6aS)-hexahydropyrrolo[3,4-c]pyrrol-2(1H)-yl)-3-(3-(trifluoromethyl)phenylsulfonyl)quinoline]
< 10 | O=S(=O)(c1cccc(F)c1)c1cnc2c(N3CC4CCNC4C3)cccc2c1 (stereo not drawn) [Example 29, 3-(3-Fluoro-benzenesulfonyl)-8-(hexahydro-pyrrolo[3,4-b]pyrrol-5-yl)-quinoline hydrochloride]
< 10 | O=S(=O)(c1cccc(F)c1)c1cnc2c(N3CC4CCCNC4C3)cccc2c1 (stereo not drawn) [Example 31, 6-(3-(3-fluorophenylsulfonyl)quinolin-8-yl)octahydro-1H-pyrrolo[3,4-b]pyridin-1-ium chloride]
< 10 | O=S(=O)(c1cccc(F)c1)c1cnc2c(N3C[C@@H]4CN[C@@H]4C3)cccc2c1 [Example 32, (1S,5S)-3-(3-(3-fluorophenylsulfonyl)quinolin-8-yl)-3-aza-6-azoniabicyclo[3.2.0]heptane hydrochloride]
< 10 | O=S(=O)(c1ccc(F)cc1)c1cnc2c(N3CC4CCNC4C3)cccc2c1 (stereo not drawn) [Example 39, 3-(4-fluorophenylsulfonyl)-8-(hexahydropyrrolo[3,4-b]pyrrol-5(1H)-yl)quinoline]
< 10 | O=S(=O)(c1cccc(C(F)(F)F)c1)c1cnc2c(N3CC4CCNCC4C3)cccc2c1 (stereo not drawn) [Example 44, 8-(1H-pyrrolo[3,4-c]pyridin-2(3H,3aH,4H,5H,6H,7H,7aH)-yl)-3-(3-(trifluoromethyl)phenylsulfonyl)quinoline]
